Measured values taken from ChEMBL document CHEMBL1201861, “Genomics of Drug Sensitity in Cancer screening data, Wellcome Trust Sanger Institute”.
Values joined by “and” are separate entries in the source; they are usually repeats but may differ in a detail not shown here. Identical values can stand only once.

Tests used:
NCI-H2228 = experiment: cells; assay type: functional, cell-based, Homo sapiens;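 further: growth inhibition of human NCI-H2228 cells, read out by a cell viability assay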
Description: SANGER: Inhibition of human NCI-H2228 cell growth in a cell viability assay.

NCI-H748 = experiment: cells; assay type: functional, cell-based; conditions: Homo sapiens;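 further: growth inhibition of NCI-H748 cells, measured by a cell viability assay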
Description: SANGER: Inhibition of human NCI-H748 cell growth in a cell viability assay.

SW756 = experiment: cells; assay type: functional, cell-based, Homo sapiens;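 further: growth inhibition of human SW756 cells, read out with a cell viability assay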
Description: SANGER: Inhibition of human SW756 cell growth in a cell viability assay.

LB647-SCLC = experiment: cells; assay type: functional, cell-based; conditions: Homo sapiens;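 further: cell growth inhibition, read out by a viability assay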
Description: SANGER: Inhibition of human LB647-SCLC cell growth in a cell viability assay.

D-423MG = experiment: cells; assay type: functional, cell-based; conditions: Homo sapiens
Description: SANGER: Inhibition of human D-423MG cell growth in a cell viability assay.

ECC4 = experiment: cells; assay type: functional, cell-based; conditions: Homo sapiens;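 further: growth inhibition of ECC4 cells, read out with a cell viability assay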
Description: SANGER: Inhibition of human ECC4 cell growth in a cell viability assay.

LNCaP-Clone-FGC = experiment: cells; assay type: functional, cell-based, Homo sapiens
Description: SANGER: Inhibition of human LNCaP-Clone-FGC cell growth in a cell viability assay.

U-698-M = experiment: cells; assay type: functional, cell-based; conditions: Homo sapiens
Description: SANGER: Inhibition of human U-698-M cell growth in a cell viability assay.

GCIY = experiment: cells; assay type: functional, cell-based, Homo sapiens;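 further: growth inhibition of the human GCIY cell line, read out by a cell viability assay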
Description: SANGER: Inhibition of human GCIY cell growth in a cell viability assay.

DG-75 = experiment: cells; assay type: functional, cell-based; conditions: Homo sapiens;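 further: growth inhibition of DG-75 cells, read out with a cell viability assay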
Description: SANGER: Inhibition of human DG-75 cell growth in a cell viability assay.

REH = experiment: cells; assay type: functional, cell-based; conditions: Homo sapiens;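 further: growth inhibition of REH cells determined with a cell viability read-out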
Description: SANGER: Inhibition of human REH cell growth in a cell viability assay.

BC1 cell line = experiment: SANGER: Inhibition of human BC-1 cell growth in a cell viability assay.; assay type: functional, cell-based
NCI-H2081 = experiment: cells; assay type: functional, cell-based; conditions: Homo sapiens;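 further: growth inhibition of human NCI-H2081 cells, read out with a cell viability assay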
Description: SANGER: Inhibition of human NCI-H2081 cell growth in a cell viability assay.

SK-N-AS = experiment: cells; assay type: functional, cell-based, Homo sapiens;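 further: growth inhibition of human SK-N-AS cells, measured with a cell viability assay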
Description: SANGER: Inhibition of human SK-N-AS cell growth in a cell viability assay.

SIMA = experiment: cells; assay type: functional, cell-based, Homo sapiens;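 further: growth inhibition of SIMA cells, measured with a cell viability readout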
Description: SANGER: Inhibition of human SIMA cell growth in a cell viability assay.

RPMI-6666 = experiment: cells; assay type: functional, cell-based; conditions: Homo sapiens
Description: SANGER: Inhibition of human RPMI-6666 cell growth in a cell viability assay.

RL = experiment: cells; assay type: functional, cell-based; conditions: Homo sapiens
Description: SANGER: Inhibition of human RL cell growth in a cell viability assay.

MZ1-PC = experiment: cells; assay type: functional, cell-based, Homo sapiens;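 further: cell viability assay measuring growth inhibition of human MZ1-PC cells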
Description: SANGER: Inhibition of human MZ1-PC cell growth in a cell viability assay.

L-428 = experiment: cells; assay type: functional, cell-based; conditions: Homo sapiens
Description: SANGER: Inhibition of human L-428 cell growth in a cell viability assay.

SJRH30 = experiment: cells; assay type: functional, cell-based; conditions: Homo sapiens;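 further: growth inhibition of human SJRH30 cells, read out with a cell viability assay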
Description: SANGER: Inhibition of human SJRH30 cell growth in a cell viability assay.

DMS-153 = experiment: cells; assay type: functional, cell-based; conditions: Homo sapiens
Description: SANGER: Inhibition of human DMS-153 cell growth in a cell viability assay.

ECC12 = experiment: cells; assay type: functional, cell-based; conditions: Homo sapiens
Description: SANGER: Inhibition of human ECC12 cell growth in a cell viability assay.

LP-1 = experiment: cells; assay type: functional, cell-based; conditions: Homo sapiens;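 further: growth inhibition of human LP-1 cells, with the read-out taken from a cell viability assay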
Description: SANGER: Inhibition of human LP-1 cell growth in a cell viability assay.

SNU-423 = experiment: cells; assay type: functional, cell-based, Homo sapiens
Description: SANGER: Inhibition of human SNU-423 cell growth in a cell viability assay.

LB831-BLC = experiment: cells; assay type: functional, cell-based, Homo sapiens;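 further: growth inhibition of LB831-BLC cells, read out with a cell viability assay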
Description: SANGER: Inhibition of human LB831-BLC cell growth in a cell viability assay.

EHEB = experiment: cells; assay type: functional, cell-based; conditions: Homo sapiens;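 further: growth inhibition of human EHEB cells, read out with a cell viability assay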
Description: SANGER: Inhibition of human EHEB cell growth in a cell viability assay.

MHH-CALL-2 = experiment: cells; assay type: functional, cell-based; conditions: Homo sapiens;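 further: growth inhibition of the cell line, read out in a cell viability assay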
Description: SANGER: Inhibition of human MHH-CALL-2 cell growth in a cell viability assay.

NCI-H1666 = experiment: cells; assay type: functional, cell-based; conditions: Homo sapiens;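 further: growth inhibition of the cell line, read out with a cell viability assay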
Description: SANGER: Inhibition of human NCI-H1666 cell growth in a cell viability assay.

TALL-1 = experiment: cells; assay type: functional, cell-based; conditions: Homo sapiens;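 further: growth inhibition of cultured human TALL-1 cells, read out by a cell viability assay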
Description: SANGER: Inhibition of human TALL-1 cell growth in a cell viability assay.

LS-123 = experiment: cells; assay type: functional, cell-based, Homo sapiens
Description: SANGER: Inhibition of human LS-123 cell growth in a cell viability assay.

NCI-H2029 = experiment: cells; assay type: functional, cell-based; conditions: Homo sapiens;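 further: Read-out is a viability assay on the cultured cells, and IC50 is the concentration that suppresses cell growth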
Description: SANGER: Inhibition of human NCI-H2029 cell growth in a cell viability assay.

BE-13 = experiment: cells; assay type: functional, cell-based; conditions: Homo sapiens;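 further: growth inhibition of human BE-13 cells, measured with a cell viability assay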
Description: SANGER: Inhibition of human BE-13 cell growth in a cell viability assay.

CPC-N = experiment: cells; assay type: functional, cell-based; conditions: Homo sapiens;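 further: growth inhibition of CPC-N cells, with a cell viability assay as the readout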
Description: SANGER: Inhibition of human CPC-N cell growth in a cell viability assay.

HCC70 = experiment: cells; assay type: functional, cell-based, Homo sapiens;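 further: cell viability assay measuring how strongly the compound suppresses proliferation of HCC70 cells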
Description: SANGER: Inhibition of human HCC70 cell growth in a cell viability assay.

SW900 = experiment: cells; assay type: functional, cell-based; conditions: Homo sapiens;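 further: IC50 is the concentration that inhibits SW900 cell growth, measured by a cell viability assay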
Description: SANGER: Inhibition of human SW900 cell growth in a cell viability assay.

IMR-5 = experiment: cells; assay type: functional, cell-based; conditions: Homo sapiens;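 further: growth inhibition of human IMR-5 cells, read out with a cell viability assay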
Description: SANGER: Inhibition of human IMR-5 cell growth in a cell viability assay.

NCI-H1417 = experiment: cells; assay type: functional, cell-based; conditions: Homo sapiens;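 further: human NCI-H1417 cells, growth inhibition determined with a cell viability readout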
Description: SANGER: Inhibition of human NCI-H1417 cell growth in a cell viability assay.

NCI-H1048 = experiment: cells; assay type: functional, cell-based; conditions: Homo sapiens;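 further: growth inhibition of human NCI-H1048 cells, read out with a cell viability assay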
Description: SANGER: Inhibition of human NCI-H1048 cell growth in a cell viability assay.

PF-382 = experiment: cells; assay type: functional, cell-based; conditions: Homo sapiens
Description: SANGER: Inhibition of human PF-382 cell growth in a cell viability assay.

NCI-H345 = experiment: cells; assay type: functional, cell-based; conditions: Homo sapiens;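 further: growth inhibition of NCI-H345 cells measured with a cell viability assay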
Description: SANGER: Inhibition of human NCI-H345 cell growth in a cell viability assay.

MC-IXC = experiment: cells; assay type: functional, cell-based, Homo sapiens;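 further: growth inhibition of MC-IXC cells, read out with a cell viability assay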
Description: SANGER: Inhibition of human MC-IXC cell growth in a cell viability assay.

MS-1 = experiment: cells; assay type: functional, cell-based; conditions: Homo sapiens
Description: SANGER: Inhibition of human MS-1 cell growth in a cell viability assay.

TE-441-T = experiment: cells; assay type: functional, cell-based; conditions: Homo sapiens
Description: SANGER: Inhibition of human TE-441-T cell growth in a cell viability assay.

KU-19-19 = experiment: cells; assay type: functional, cell-based, Homo sapiens
Description: SANGER: Inhibition of human KU-19-19 cell growth in a cell viability assay.

HCT-15 = experiment: cells; assay type: functional, cell-based, Homo sapiens;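 further: cell viability readout, IC50 reflecting suppression of HCT-15 cell growth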
Description: SANGER: Inhibition of human HCT-15 cell growth in a cell viability assay.

RD = experiment: cells; assay type: functional, cell-based, Homo sapiens
Description: SANGER: Inhibition of human RD cell growth in a cell viability assay.

PANC-08-13 = experiment: cells; assay type: functional, cell-based, Homo sapiens
Description: SANGER: Inhibition of human PANC-08-13 cell growth in a cell viability assay.

CFPAC-1 = experiment: cells; assay type: functional, cell-based; conditions: Homo sapiens;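 further: cell viability readout used to gauge suppression of CFPAC-1 cell proliferation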
Description: SANGER: Inhibition of human CFPAC-1 cell growth in a cell viability assay.

SBC-1 = experiment: cells; assay type: functional, cell-based; conditions: Homo sapiens;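 further: cell viability assay measuring growth inhibition of the SBC-1 cell line, IC50 being the concentration that halves growth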
Description: SANGER: Inhibition of human SBC-1 cell growth in a cell viability assay.

HCT-116 = experiment: cells; assay type: functional, cell-based, Homo sapiens
Description: SANGER: Inhibition of human HCT-116 cell growth in a cell viability assay.

RPMI-8226 = experiment: cells; assay type: functional, cell-based; conditions: Homo sapiens
Description: SANGER: Inhibition of human RPMI-8226 cell growth in a cell viability assay.

NY = experiment: cells; assay type: functional, cell-based, Homo sapiens
Description: SANGER: Inhibition of human NY cell growth in a cell viability assay.

LU-99A = experiment: cells; assay type: functional, cell-based, Homo sapiens;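 further: growth inhibition of LU-99A cells, read out with a cell viability assay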
Description: SANGER: Inhibition of human LU-99A cell growth in a cell viability assay.

Daudi = experiment: cells; assay type: functional, cell-based; conditions: Homo sapiens;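 further: growth inhibition of Daudi cells, read out by a viability assay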
Description: SANGER: Inhibition of human Daudi cell growth in a cell viability assay.

NALM-6 = experiment: cells; assay type: functional, cell-based; conditions: Homo sapiens;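 further: growth inhibition of NALM-6 cells, read out with a cell viability assay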
Description: SANGER: Inhibition of human NALM-6 cell growth in a cell viability assay.

Cc1cc([C@@H](C)Nc2ccccc2C(=O)O)c2nc(N3CCOCC3)cc(=O)n2c1 [AZD-6482]
IC50 (NCI-H2228; nci-h2228): > 5.12 µM
IC50 (NCI-H748): > 5.12 µM
IC50 (SW756; Homo sapiens, SW756): > 5.12 µM
IC50 (SW756; sw756): > 5.12 µM
IC50 (LB647-SCLC): > 5.12 µM
IC50 (D-423MG): 2.94 µM
IC50 (ECC4): > 5.12 µM
IC50 (LNCaP-Clone-FGC; Homo sapiens, LNCaP-Clone-FGC): 1.52 µM
IC50 (LNCaP-Clone-FGC; lncap-clone-fgc): 2.41 µM
IC50 (U-698-M): > 5.12 µM
IC50 (GCIY; gciy): > 5.12 µM and 2.2 µM
IC50 (DG-75): > 5.12 µM
IC50 (REH): > 5.12 µM
IC50 (BC1 cell line): > 5.12 µM
IC50 (NCI-H2081): > 5.12 µM
IC50 (SK-N-AS; Homo sapiens, SK-N-AS): > 5.12 µM
IC50 (SK-N-AS; sk-n-as): > 5.12 µM
IC50 (SIMA; sima): > 5.12 µM
IC50 (RPMI-6666): 0.644 µM
IC50 (RL): > 5.12 µM
IC50 (MZ1-PC; mz1-pc): > 5.12 µM
IC50 (L-428): > 5.12 µM
IC50 (SJRH30): > 5.12 µM
IC50 (DMS-153): > 5.12 µM
IC50 (ECC12): > 5.12 µM
IC50 (LP-1): > 5.12 µM
IC50 (SNU-423; snu-423): 1.57 µM and > 5.12 µM
IC50 (LB831-BLC; lb831-blc): > 5.12 µM
IC50 (EHEB): 2.98 µM
IC50 (MHH-CALL-2): > 5.12 µM
IC50 (NCI-H1666): > 5.12 µM
IC50 (TALL-1): > 5.12 µM
IC50 (LS-123; ls-123): > 5.12 µM
IC50 (NCI-H2029): > 5.12 µM
IC50 (BE-13): > 5.12 µM
IC50 (CPC-N): > 5.12 µM
IC50 (HCC70; hcc70): 1.66 µM and > 5.12 µM
IC50 (SW900): > 5.12 µM
IC50 (IMR-5): > 5.12 µM
IC50 (NCI-H1417): > 5.12 µM
IC50 (NCI-H1048): 1.23 µM
IC50 (PF-382): > 5.12 µM
IC50 (NCI-H345): > 5.12 µM
IC50 (MC-IXC; Homo sapiens, MC-IXC): > 5.12 µM
IC50 (MC-IXC; mc-ixc): > 5.12 µM
IC50 (MS-1): > 5.12 µM
IC50 (TE-441-T): > 5.12 µM
IC50 (KU-19-19; ku-19-19): > 5.12 µM
IC50 (HCT-15; hct-15): > 5.12 µM
IC50 (RD; Homo sapiens, RD): > 5.12 µM
IC50 (RD; rd): > 5.12 µM
IC50 (PANC-08-13; panc-08-13): > 5.12 µM
IC50 (CFPAC-1): > 5.12 µM
IC50 (SBC-1): > 5.12 µM
IC50 (HCT-116; hct-116): > 5.12 µM
IC50 (RPMI-8226): > 5.12 µM
IC50 (NY; Homo sapiens, NY): > 5.12 µM
IC50 (NY; ny): > 5.12 µM
IC50 (LU-99A; lu-99a): > 5.12 µM
IC50 (Daudi): 1.07 µM
IC50 (NALM-6): 0.705 µM

COC(=O)CNC(=O)C(=O)OC
IC50 (NCI-H2228; Homo sapiens, NCI-H2228): 42.8 µM
IC50 (NCI-H748): 254 µM
IC50 (SW756; Homo sapiens, SW756): 138 µM
IC50 (LB647-SCLC): 3530 µM
IC50 (ECC4): 3580 µM
IC50 (LNCaP-Clone-FGC; Homo sapiens, LNCaP-Clone-FGC): 3210 µM
IC50 (U-698-M): 13.3 µM
IC50 (GCIY; Homo sapiens, GCIY): 109 µM
IC50 (DG-75): 1050 µM
IC50 (REH): 308 µM
IC50 (BC1 cell line): 86.1 µM
IC50 (NCI-H2081): 1010 µM
IC50 (SK-N-AS; Homo sapiens, SK-N-AS): 971 µM
IC50 (SIMA; Homo sapiens, SIMA): 846 µM
IC50 (RPMI-6666): 228 µM
IC50 (RL): 601 µM
IC50 (MZ1-PC; Homo sapiens, MZ1-PC): 46 µM
IC50 (L-428): 688 µM
IC50 (SJRH30): 1550 µM
IC50 (DMS-153): > 4000 µM
IC50 (ECC12): 1800 µM
IC50 (LP-1): 190 µM
IC50 (SNU-423; Homo sapiens, SNU-423): 175 µM
IC50 (LB831-BLC; Homo sapiens, LB831-BLC): 911 µM
IC50 (EHEB): 271 µM
IC50 (MHH-CALL-2): 173 µM
IC50 (TALL-1): > 4000 µM
IC50 (LS-123; Homo sapiens, LS-123): > 4000 µM
IC50 (BE-13): 180 µM
IC50 (CPC-N): > 4000 µM
IC50 (HCC70; Homo sapiens, HCC70): 306 µM
IC50 (IMR-5): 254 µM
IC50 (NCI-H1417): 2380 µM
IC50 (PF-382): 85.4 µM
IC50 (NCI-H345): 648 µM
IC50 (MC-IXC; Homo sapiens, MC-IXC): 96.7 µM
IC50 (MS-1): 878 µM
IC50 (TE-441-T): 1870 µM
IC50 (KU-19-19; Homo sapiens, KU-19-19): 1010 µM
IC50 (HCT-15; Homo sapiens, HCT-15): 1820 µM
IC50 (RD; Homo sapiens, RD): 692 µM
IC50 (PANC-08-13; Homo sapiens, PANC-08-13): 1460 µM
IC50 (SBC-1): 1410 µM
IC50 (HCT-116; Homo sapiens, HCT-116): 658 µM
IC50 (RPMI-8226): 870 µM
IC50 (NY; Homo sapiens, NY): 725 µM
IC50 (LU-99A; Homo sapiens, LU-99A): 197 µM
IC50 (Daudi): 68.3 µM
IC50 (NALM-6): 85 µM

Cc1cnc(-c2cnc(NCCNc3ccc(C#N)cn3)nc2-c2ccc(Cl)cc2Cl)[nH]1 [LADUVIGLUSIB]
IC50 (NCI-H2228; Homo sapiens, NCI-H2228): > 2.56 µM
IC50 (NCI-H748): > 2.56 µM
IC50 (SW756; Homo sapiens, SW756): > 2.56 µM
IC50 (LB647-SCLC): > 2.56 µM
IC50 (ECC4): > 2.56 µM
IC50 (LNCaP-Clone-FGC; Homo sapiens, LNCaP-Clone-FGC): > 2.56 µM
IC50 (U-698-M): > 2.56 µM
IC50 (GCIY; Homo sapiens, GCIY): > 2.56 µM
IC50 (DG-75): > 2.56 µM
IC50 (REH): > 2.56 µM
IC50 (BC1 cell line): > 2.56 µM
IC50 (NCI-H2081): > 2.56 µM
IC50 (SK-N-AS; Homo sapiens, SK-N-AS): > 2.56 µM
IC50 (SIMA; Homo sapiens, SIMA): > 2.56 µM
IC50 (RPMI-6666): > 2.56 µM
IC50 (RL): > 2.56 µM
IC50 (MZ1-PC; Homo sapiens, MZ1-PC): > 2.56 µM
IC50 (L-428): > 2.56 µM
IC50 (SJRH30): > 2.56 µM
IC50 (DMS-153): > 2.56 µM
IC50 (ECC12): > 2.56 µM
IC50 (LP-1): > 2.56 µM
IC50 (SNU-423; Homo sapiens, SNU-423): 2.5 µM
IC50 (LB831-BLC; Homo sapiens, LB831-BLC): > 2.56 µM
IC50 (EHEB): > 2.56 µM
IC50 (MHH-CALL-2): > 2.56 µM
IC50 (TALL-1): > 2.56 µM
IC50 (LS-123; Homo sapiens, LS-123): > 2.56 µM
IC50 (BE-13): > 2.56 µM
IC50 (CPC-N): > 2.56 µM
IC50 (HCC70; Homo sapiens, HCC70): > 2.56 µM
IC50 (IMR-5): > 2.56 µM
IC50 (NCI-H1417): > 2.56 µM
IC50 (PF-382): > 2.56 µM
IC50 (NCI-H345): > 2.56 µM
IC50 (MC-IXC; Homo sapiens, MC-IXC): > 2.56 µM
IC50 (MS-1): > 2.56 µM
IC50 (TE-441-T): > 2.56 µM
IC50 (KU-19-19; Homo sapiens, KU-19-19): > 2.56 µM
IC50 (HCT-15; Homo sapiens, HCT-15): > 2.56 µM
IC50 (RD; Homo sapiens, RD): > 2.56 µM
IC50 (PANC-08-13; Homo sapiens, PANC-08-13): > 2.56 µM
IC50 (SBC-1): > 2.56 µM
IC50 (HCT-116; Homo sapiens, HCT-116): > 2.56 µM
IC50 (RPMI-8226): > 2.56 µM
IC50 (NY; Homo sapiens, NY): > 2.56 µM
IC50 (LU-99A; Homo sapiens, LU-99A): > 2.56 µM
IC50 (Daudi): > 2.56 µM
IC50 (NALM-6): > 2.56 µM
